Tests used:
Format in all cases: in vivo
barnyard grass (Ec) [1] = assay: Test Example 2: herbicidal effects by upland soil treatment; parameters: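 0-5 growth inhibition grade; 5 = over 90%; 4 = 70-90%; 3 = 50-70%; 2 = 30-50%; 1 = 10-30%; 0 = under 10%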; settings: dose 100 g active ingredient per 10 ares, examined on the 21st day after treatment
Method in brief: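 Pre-emergence test: barnyard grass and green foxtail sown in upland soil, then soil surface sprayed with wettable-powder formulation at 100 g active ingredient per 10 ares (100 l per 10 ares). Grown in greenhouse; herbicidal effect scored on a rating scale 21 days after treatment.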

monochoria (Mo) = assay: Test Example 1: herbicidal effects by flooded paddy field treatment; parameters: herbicidal effects, Mo (monochoria):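 0-5 growth inhibition grade; 5 = over 90%; 4 = 70-90%; 3 = 50-70%; 2 = 30-50%; 1 = 10-30%; 0 = under 10%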; settings: dose 100 g active ingredient per 10 ares, examined on the 21st day after treatment, standards of Table 44
Method in brief: (§1)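 Dose: 100 g active ingredient per 10 ares as a diluted wettable powder dripped onto 3 cm floodwater, one day after sowing in puddled paddy soil. Scored by a standard rating scale 21 days later following greenhouse growth.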

barnyard grass (Eo) = assay: as above; parameters: herbicidal effects, Eo (barnyard grass):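 0-5 growth inhibition grade; 5 = over 90%; 4 = 70-90%; 3 = 50-70%; 2 = 30-50%; 1 = 10-30%; 0 = under 10%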; settings: dose 100 g active ingredient per 10 ares, examined on the 21st day after treatment, standards of Table 44
Method in brief: as §1

barnyard grass (Ec) [2] = assay: Test Example 3: herbicidal effects by foliage treatment in upland field; parameters: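 0-5 growth inhibition grade; 5 = over 90%; 4 = 70-90%; 3 = 50-70%; 2 = 30-50%; 1 = 10-30%; 0 = under 10%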; settings: dose 100 g active ingredient per 10 ares, examined on the 14th day after treatment
Method: In a 80 cm^2 plastic pot, upland soil was filled, and seeds of barnyard grass (Ec) and green foxtail (Se) were sown and cultured in a green house for 2 weeks. Then, a wettable powder prepared in accordance with Formulation Example 1 was diluted with water and applied to the entire foliage from above the plants by means of a small size spray at a rate of 100 l per 10 ares so that the dose of the active ingredient would be 100 g per 10 ares. Thereafter, cultivation was carried out in a green house, and on the 14th day after the treatment, the herbicidal effects were examined in accordance with the standards of Table 44.

Row | SMILES | Ec (herbicidal effects, index) (barnyard grass (Ec) [1]) | herbicidal effects, Mo (monochoria) (monochoria (Mo)) | herbicidal effects, Eo (barnyard grass) (barnyard grass (Eo)) | Ec (herbicidal effects, index) (barnyard grass (Ec) [2])
1 | CC(C)CC(c1cncnc1C(F)(F)F)N(C)C(=O)Cc1ccc(F)cc1 (racemic) [1-331] | 5 | 5 | 5 | 4
2 | COc1ncncc1C(C(C)C)N(C)C(=O)Cc1ccc(F)cc1 (racemic) [1-402] | 5 | 5 | 5 | 5
3 | COc1ncncc1C(C(C)C)N(C)C(=O)Cc1ccc(Cl)cc1 (racemic) [1-403] | 5 | 5 | 5 | 4
4 | CON(C(=O)Cc1ccc(Cl)cc1)C(c1cncnc1C(F)(F)F)C(C)C (racemic) [1-407] | 5 | 5 | 5 | 4
5 | CN(C(=O)Cc1ccc(F)cc1)C(c1cncnc1C(F)(F)F)C1(C)CC1 (racemic) [1-410] | 5 | 5 | 5 | 4
6 | CN(C(=O)Cc1ccc(Cl)cc1)C(c1cncnc1C(F)(F)F)C1(C)CC1 (racemic) [1-411] | 5 | 5 | 5 | 4
7 | CC(C)C(c1cncnc1C(F)(F)F)N(C)C(=O)N(C)c1ccc(F)cc1 (racemic) [1-426] | 5 | 5 | 5 | 4
8 | CC(C)C(c1cncnc1C(F)(F)F)N(C)C(=O)N(C)c1ccc(Cl)cc1 (racemic) [1-427] | 5 | 5 | 5 | 4
9 | Cc1ccc(N(C)C(=O)N(C)C(c2cncnc2C(F)(F)F)C(C)C)cc1 (racemic) [1-428] | 5 | 5 | 5 | 4
10 | CC(C)c1ncncc1C(C(C)C)N(C)C(=O)N(C)c1ccc(Cl)cc1 (racemic) [1-430] | 5 | 5 | 5 | 4
11 | Cc1ccc(N(C)C(=O)N(C)C(c2cncnc2C(C)C)C(C)C)cc1 (racemic) [1-431] | 5 | 5 | 5 | 4
12 | CCc1ncncc1C(C(C)C)N(C)C(=O)Cc1ccccc1 (racemic) [1-432] | 5 | 5 | 5 | 5
13 | CCc1ncncc1C(C(C)C)N(C)C(=O)Cc1ccc(Cl)cc1 (racemic) [1-434] | 5 | 5 | 5 | 4
14 | CCc1ncncc1C(C(C)C)N(C)C(=O)Cc1ccc(C)cc1 (racemic) [1-435] | 5 | 5 | 5 | 4
15 | CCC(c1cncnc1C(C)C)N(C)C(=O)Cc1ccc(F)cc1 (racemic) [1-437] | 5 | 5 | 5 | 4
16 | CCCc1ncncc1C(C(C)C)N(C)C(=O)Cc1ccccc1 (racemic) [1-445] | 5 | 5 | 5 | 5
17 | CCCc1ncncc1C(C(C)C)N(C)C(=O)Cc1ccc(F)cc1 (racemic) [1-446] | 5 | 5 | 5 | 5
18 | CCCc1ncncc1C(C(C)C)N(C)C(=O)Cc1ccc(Cl)cc1 (racemic) [1-447] | 5 | 5 | 5 | 5
19 | CCCC(c1cncnc1C(C)C)N(C)C(=O)Cc1ccccc1 (racemic) [1-449] | 5 | 5 | 5 | 4

Row | SMILES | Ec (herbicidal effects, index) (barnyard grass (Ec) [1]) | herbicidal effects, Mo (monochoria) (monochoria (Mo)) | herbicidal effects, Eo (barnyard grass) (barnyard grass (Eo)) | Ec (herbicidal effects, index) (barnyard grass (Ec) [2])
20 | CCCC(c1cncnc1C(C)C)N(C)C(=O)Cc1ccc(F)cc1 (racemic) [1-450] | 5 | 5 | 5 | 4
21 | CCCC(c1cncnc1C(C)C)N(C)C(=O)Cc1ccc(Cl)cc1 (racemic) [1-451] | 5 | 5 | 5 | 4
22 | CON=CC(c1cncnc1C(C)C)N(C)C(=O)Cc1ccc(F)cc1 (racemic) [1-463] | 4 | 5 | 5 | 4
23 | CON=CC(c1cncnc1C(C)C)N(C)C(=O)Cc1ccc(Cl)cc1 (racemic) [1-464] | 5 | 5 | 5 | 4
24 | CC(C)C(c1cncnc1C(F)(F)F)N(CC#N)C(=O)Cc1ccc(Cl)cc1 (racemic) [1-482] | 5 | 5 | 5 | 5
25 | COc1ccccc1C(c1cncnc1C(F)(F)F)N(C)C(=O)Cc1ccccc1 (racemic) [1-488] | 5 | 5 | 5 | 5
26 | CON=Cc1ncncc1C(C(C)C)N(C)C(=O)Cc1ccc(F)cc1 (racemic) [1-497] | 5 | 5 | 5 | 4
27 | CC(=O)c1ncncc1C(C(C)C)N(C)C(=O)Cc1ccccc1 (racemic) [1-526] | 5 | 5 | 5 | 5
28 | CC(C)C(c1cncnc1C(F)(F)F)N(C)C(=O)N(C)c1ccccc1F (racemic) [1-536] | 5 | 5 | 5 | 4
29 | CC(C)C(c1cncnc1C(F)(F)F)N(C)C(=O)N(C)c1ccc(F)cc1F (racemic) [1-537] | 5 | 5 | 5 | 4
30 | CCc1ncncc1C(C(C)C)N(C)C(=O)N(C)c1ccccc1 (racemic) [1-538] | 5 | 5 | 5 | 4
31 | CCc1ncncc1C(C(C)C)N(C)C(=O)N(C)c1ccc(F)cc1 (racemic) [1-539] | 5 | 5 | 5 | 4
32 | CCc1ncncc1C(C(C)C)N(C)C(=O)N(C)c1ccc(Cl)cc1 (racemic) [1-540] | 5 | 5 | 5 | 4
33 | CN(C(=O)Cc1ccccc1)C(c1ccccc1F)c1cncnc1C(F)(F)F (racemic) [1-546] | 5 | 5 | 5 | 4
34 | C#CCN(C(=O)Cc1ccc(Cl)cc1)C(c1cncnc1CC)C(C)C (racemic) [1-560] | 5 | 5 | 5 | 4
35 | CON=C(C)C(c1cncnc1C(C)C)N(C)C(=O)Cc1ccc(F)cc1 (racemic) [1-563] | 5 | 5 | 5 | 5
36 | CCc1ncncc1C(N(C)C(=O)Cc1ccc(F)cc1)C(C)(C)C (racemic) [1-565] | 5 | 5 | 5 | 5
37 | CCC(c1cncnc1C(C)(C)C)N(C)C(=O)Cc1ccc(F)cc1 (racemic) [1-571] | 5 | 4 | 5 | 4
